Results from PubChem BioAssay (NCI).
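The compound was tested at five concentrations on cells cultured in 96-well plates, with a 48-hour exposure period. TGI is the concentration that stops growth completely.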

Legend:
Test in all cases: growth of human tumour cells (NCI), 48 h
[1] = test system: HOP-62 NSCLC
[2] = test system: HCC-2998 colon
[3] = test system: OVCAR-4 ovarian
[4] = test system: UO-31 renal
[5] = test system: SK-MEL-5 melanoma
[6] = test system: TK-10 renal
[7] = test system: SNB-19 CNS
[8] = test system: KM12 colon
[9] = test system: A549 NSCLC
[10] = test system: NCI-H23 lung
[11] = test system: SF-295 CNS
[12] = test system: MOLT-4 leukemia
[13] = test system: IGROV1 ovarian
[14] = test system: NCI-H226 lung
[15] = test system: HT29 colon
[16] = test system: UACC-62 melanoma
[17] = test system: A498 renal
[18] = test system: SNB-75 CNS
[19] = test system: ACHN renal
[20] = test system: RPMI-8226 leukemia
[21] = test system: UACC-257 melanoma
[22] = test system: U251 CNS
[23] = test system: SW-620 colon
[24] = test system: HCT-15 colon
[25] = test system: OVCAR-3 ovarian
[26] = test system: HOP-92 NSCLC
[27] = test system: 786-0 renal
[28] = test system: CAKI-1 renal
[29] = test system: PC-3 prostate
[30] = test system: MCF7 breast
[31] = test system: MDA-MB-435
[32] = test system: BT-549 breast
[33] = test system: OVCAR-8 ovarian
[34] = test system: DU-145 prostate
[35] = test system: LOX IMVI melanoma
[36] = test system: RXF 393 renal
[37] = test system: SR leukemia
[38] = test system: HCT-116 colon
[39] = test system: OVCAR-5 ovarian
[40] = test system: SK-OV-3 ovarian
[41] = test system: EKVX NSCLC
[42] = test system: NCI/ADR-RES ovarian
[43] = test system: MDA-MB-231 breast
[44] = test system: K-562 leukemia
[45] = test system: COLO 205 colon
[46] = test system: SF-539 CNS
[47] = test system: NCI-H460 lung
[48] = test system: M14 melanoma
[49] = test system: SN12C renal
[50] = test system: MDA-N
[51] = test system: T-47D breast
[52] = test system: CCRF-CEM leukemia
[53] = test system: SK-MEL-2 melanoma

Measured: TGI

O=C1c2ccccc2-n2c1nc1ccc(Cl)cc1c2=O
44.8 µM: [36]
> 100 µM: [1] | [2] | [3] | [4] | [5] | [6] | [7] | [8] | [9] | [10] | [11] | [12] | [13] | [14] | [15] | [17] | [19] | [20] | [21] | [22] | [23] | [24] | [25] | [26] | [27] | [28] | [29] | [30] | [32] | [33] | [34] | [35] | [37] | [38] | [39] | [40] | [41] | [42] | [43] | [44] | [45] | [46] | [47] | [48] | [49] | [51] | [53]
48.3 µM: [50]
31.1 µM: [31]
92.7 µM: [16]
13.8 µM: [52]
75.5 µM: [18]
